Results published in patent US20150291598A1 (NOVARTIS AG, priority 2012, published 2015).

test system: P. falciparum (NF54 or 3D7 strain); assay: Assay for P. falciparum proliferation in infected human blood cells (SYBR Green); type: cell-based, Plasmodium falciparum; settings: NF54 or 3D7 infected human erythrocytes, 72 hours; read-out: EC50 (nM), inhibitory efficacy in delaying P. falciparum proliferation in infected human blood cells
Outline: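 Infected erythrocytes (NF54 or 3D7; final 2.5% hematocrit, 0.3% parasitemia) were incubated with compounds for 72 h at 37 °C in low oxygen (3% O2, 4% CO2, 93% N2).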

EC50	SMILES
252 nM	C[C@@H](N)C(=O)Nc1ccc(-c2cnc3cnc(C(=O)N(C)c4ccc(C#N)cc4)cn23)cc1 [Compound 282, 3-{4-[(2R)-2-aminopropanamido]phenyl}-N-(4-cyanophenyl)-N-methylimidazo[1,2-a]pyrazine-6-carboxamide]

same assay, conditions: Plasmodium falciparum, 3D7|NF54, Erythrocyte, in Homo sapiens, 72 h, NF54 or 3D7 infected human erythrocytes, 72 hours; read-out: EC50 (nM), inhibitory efficacy in delaying P. falciparum proliferation in infected human blood cells

EC50	SMILES
1090 nM	Cc1ccnc(N(C)C(=O)c2cn3c(-c4ccc(C(F)(F)F)cc4)cnc3cn2)c1 [Compound 328]

same assay, conditions: Plasmodium falciparum, Erythrocyte, 72 h, NF54 or 3D7 infected human erythrocytes, 72 hours; read-out: EC50 (nM), inhibitory efficacy in delaying P. falciparum proliferation in infected human blood cells

EC50	SMILES
7890 nM	CN(C(=O)c1cn2c(-c3cnn(C)c3)cnc2cn1)c1ccc(C#N)cc1 [Compound 189, N-(4-cyanophenyl)-N-methyl-3-(1-methyl-1H-pyrazol-4-yl)imidazo[1,2-a]pyrazine-6-carboxamide]
240 nM	CC(C)[C@@H](N)CC(=O)Nc1ccc(-c2cnc3cnc(C(=O)N(C)c4ccc(C#N)cc4)cn23)cc1 [Compound 256, 3-{4-[(3S)-3-amino-4-methylpentanamido]phenyl}-N-(4-cyanophenyl)-N-methylimidazo[1,2-a]pyrazine-6-carboxamide]
3320 nM	CN(C(=O)c1cn2c(-c3ccc(C(F)(F)F)cc3)cnc2cn1)c1ccccc1OC(F)(F)F [Compound 40, N-methyl-N-[2-(trifluoromethoxy)phenyl]-3-[4-(trifluoromethyl)phenyl]imidazo[1,2-a]pyrazine-6-carboxamide]
12 nM	CN(C(=O)c1cn2c(-c3ccc4c(cnn4C)c3)cnc2cn1)c1ccc(F)c(F)c1 [Compound 53, N-(3,4-difluorophenyl)-N-methyl-3-(1-methyl-1H-indazol-5-yl)imidazo[1,2-a]pyrazine-6-carboxamide]
186 nM	CN(C(=O)c1cn2c(-c3ccc(OCC#N)cc3)cnc2cn1)c1ccc(C#N)cc1 [Compound 273, 3-[4-(cyanomethoxy)phenyl]-N-(4-cyanophenyl)-N-methylimidazo[1,2-a]pyrazine-6-carboxamide]
9 nM	CNc1nnc(-c2ccc(-c3cnc4cnc(C(=O)N(C)c5ccc(Cl)cc5)cn34)cc2)o1 [Compound 483, N-(4-chlorophenyl)-N-methyl-3-{4-[5-(methylamino)-1,3,4-oxadiazol-2-yl]phenyl}imidazo[1,2-a]pyrazine-6-carboxamide]
> 8270 nM	CN(C(=O)c1cn2c(-c3ccc(NS(C)(=O)=O)cc3)cnc2cn1)c1ccc(Cl)nc1 [Compound 419, N-(6-chloropyridin-3-yl)-3-(4-methanesulfonamidophenyl)-N-methylimidazo[1,2-a]pyrazine-6-carboxamide]
230 nM	CN(C(=O)c1cn2c(-c3ccc(Cl)cc3)cnc2cn1)c1ccc(Cl)cc1Cl [Compound 70, 3-(4-chlorophenyl)-N-(2,4-dichlorophenyl)-N-methylimidazo[1,2-a]pyrazine-6-carboxamide]
462 nM	CN(C(=O)c1cn2c(-c3ccc(C(F)(F)F)cc3)cnc2cn1)c1cccc(Cl)c1 [Compound 35, N-(3-chlorophenyl)-N-methyl-3-[4-(trifluoromethyl)phenyl]imidazo[1,2-a]pyrazine-6-carboxamide]
53 nM	CN(C(=O)c1cn2c(-c3ccc(OC(F)F)cc3)cnc2cn1)c1ccc(Cl)cc1 [Compound 102, N-(4-chlorophenyl)-3-[4-(difluoromethoxy)phenyl]-N-methylimidazo[1,2-a]pyrazine-6-carboxamide]
457 nM	O=C(c1cn2c(-c3ccc(C(F)(F)F)cc3)cnc2cn1)N1CCOc2cc(F)ccc21 [Compound 305, 7-fluoro-4-({3-[4-(trifluoromethyl)phenyl]imidazo[1,2-a]pyrazin-6-yl}carbonyl)-3,4-dihydro-2H-1,4-benzoxazine]
> 8860 nM	O=C(Nc1ccc(S(=O)(=O)Nc2nccs2)cc1)c1cn2c(-c3ccc(C(F)(F)F)cc3)cnc2cn1 [Compound 406, N-{4-[(1,3-thiazol-2-yl)sulfamoyl]phenyl}-3-[4-(trifluoromethyl)phenyl]imidazo[1,2-a]pyrazine-6-carboxamide]
436 nM	CN(C(=O)c1cn2c(-c3ccc(C(F)(F)F)cc3F)cnc2cn1)c1ccc(C#N)cc1 [Compound 140, N-(4-cyanophenyl)-3-[2-fluoro-4-(trifluoromethyl)phenyl]-N-methylimidazo[1,2-a]pyrazine-6-carboxamide]
876 nM	CN(C(=O)c1cn2c(-c3ccc(OC(C)(C)C(N)=O)cc3)cnc2cn1)c1ccc(C#N)cc1 [Compound 352, 3-[4-(1-carbamoyl-1-methylethoxy)phenyl]-N-(4-cyanophenyl)-N-methylimidazo[1,2-a]pyrazine-6-carboxamide]
507 nM	CN(C(=O)c1cn2c(-c3ccc(C(F)(F)F)cc3)cnc2cn1)c1ccccc1F [Compound 119, N-(2-fluorophenyl)-N-methyl-3-[4-(trifluoromethyl)phenyl]imidazo[1,2-a]pyrazine-6-carboxamide]
611 nM	Cc1ccncc1N(C)C(=O)c1cn2c(-c3ccc(C(F)(F)F)cc3)cnc2cn1 [Compound 309, N-methyl-N-(4-methylpyridin-3-yl)-3-[4-(trifluoromethyl)phenyl]imidazo[1,2-a]pyrazine-6-carboxamide]

EC50	SMILES
31 nM	CNc1nnc(-c2ccc(-c3cnc4cnc(C(=O)N(C)c5ccc(F)cc5)cn34)cc2)o1 [Compound 478, N-(4-fluorophenyl)-N-methyl-3-{4-[5-(methylamino)-1,3,4-oxadiazol-2-yl]phenyl}imidazo[1,2-a]pyrazine-6-carboxamide]
5150 nM	CC(=O)Nc1ccc(-c2cnc3cnc(C(=O)N(C)c4ccc(C)cn4)cn23)cc1 [Compound 361, 3-(4-acetamidophenyl)-N-methyl-N-(5-methylpyridin-2-yl)imidazo[1,2-a]pyrazine-6-carboxamide]
2090 nM	CN(C(=O)c1cn2c(-c3ccc(C(F)(F)F)cc3)cnc2cn1)c1cccnc1 [Compound 326, N-methyl-N-(pyridin-3-yl)-3-[4-(trifluoromethyl)phenyl]imidazo[1,2-a]pyrazine-6-carboxamide]
9300 nM	CC(C)Oc1ccc(N(C)C(=O)c2cn3c(-c4ccc(C(F)(F)F)cc4)cnc3cn2)cc1 [Compound 436, N-methyl-N-[4-(propan-2-yloxy)phenyl]-3-[4-(trifluoromethyl)phenyl]imidazo[1,2-a]pyrazine-6-carboxamide]
565 nM	COc1ncc(N(C)C(=O)c2cn3c(-c4ccc(C(F)(F)F)cc4)cnc3cn2)cc1C [Compound 288, N-(6-methoxy-5-methylpyridin-3-yl)-N-methyl-3-[4-(trifluoromethyl)phenyl]imidazo[1,2-a]pyrazine-6-carboxamide]
160 nM	CN(C(=O)c1cn2c(-c3ccc(C(F)(F)F)cc3)cnc2cn1)c1ccc(Cl)c(Cl)c1 [Compound 55, N-(3,4-dichlorophenyl)-N-methyl-3-[4-(trifluoromethyl)phenyl]imidazo[1,2-a]pyrazine-6-carboxamide]
2010 nM	CN(C(=O)c1cn2c(-c3ccc4ncccc4c3)cnc2cn1)c1ccc(C#N)cc1 [Compound 157, N-(4-cyanophenyl)-N-methyl-3-(quinolin-6-yl)imidazo[1,2-a]pyrazine-6-carboxamide]
217 nM	CN(C(=O)c1cn2c(-c3ccc(N)cc3)cnc2cn1)c1ccc(C#N)cc1 [Compound 124, 3-(4-aminophenyl)-N-(4-cyanophenyl)-N-methylimidazo[1,2-a]pyrazine-6-carboxamide]
140 nM	COc1cccc(N(C)C(=O)c2cn3c(-c4ccc(C(F)(F)F)cc4)cnc3cn2)c1 [Compound 440, N-(3-methoxyphenyl)-N-methyl-3-[4-(trifluoromethyl)phenyl]imidazo[1,2-a]pyrazine-6-carboxamide]
452 nM	Cc1cc(N(C)C(=O)c2cn3c(-c4ccc(C(F)(F)F)cc4)cnc3cn2)cnc1Cl [Compound 304, N-(6-chloro-5-methylpyridin-3-yl)-N-methyl-3-[4-(trifluoromethyl)phenyl]imidazo[1,2-a]pyrazine-6-carboxamide]
207 nM	CC(N)C(=O)Nc1ccc(-c2cnc3cnc(C(=O)N(C)c4ccc(C#N)cc4)cn23)cc1 (stereo in doubt) [Compound 271, 3-{4-[(2S)-2-aminopropanamido]phenyl}-N-(4-cyanophenyl)-N-methylimidazo[1,2-a]pyrazine-6-carboxamide]
1120 nM	CN(C(=O)c1ccc(N2CCOCC2)cc1)c1cn2c(-c3ccc(C(F)(F)F)cc3)cnc2cn1 [Compound 24, N-methyl-4-(morpholin-4-yl)-N-{3-[4-(trifluoromethyl)phenyl]imidazo[1,2-a]pyrazin-6-yl}benzamide]
7400 nM	CN(C(=O)c1cn2c(-c3ccc(C(F)(F)F)nc3)cnc2cn1)c1ccc(Cl)nc1 [Compound 413, N-(6-chloropyridin-3-yl)-N-methyl-3-[6-(trifluoromethyl)pyridin-3-yl]imidazo[1,2-a]pyrazine-6-carboxamide]
4070 nM	CCCOc1ccc(-c2cnc3cnc(C(=O)N(C)c4ccc(C#N)cc4)cn23)cn1 [Compound 170, N-(4-cyanophenyl)-N-methyl-3-(6-propoxypyridin-3-yl)imidazo[1,2-a]pyrazine-6-carboxamide]
86 nM	CN(C(=O)c1cn2c(-c3ccc(C(F)(F)F)cc3)cnc2cn1)c1ccc(Br)cc1 [Compound 215, N-(4-bromophenyl)-N-methyl-3-[4-(trifluoromethyl)phenyl]imidazo[1,2-a]pyrazine-6-carboxamide]
5790 nM	CN(C(=O)c1cn2c(-c3ccc(C#N)cc3)c(C(F)(F)F)nc2cn1)c1ccc(C#N)cc1 [Compound 341, N,3-bis(4-cyanophenyl)-N-methyl-2-(trifluoromethyl)imidazo[1,2-a]pyrazine-6-carboxamide]

same assay, conditions: Plasmodium falciparum, Erythrocyte, infected human red blood cells; read-out: EC50, P. falciparum Proliferation Assay

EC50	SMILES
< 50 nM	CNc1nnc(-c2ccc(-c3cnc4cnc(C(=O)N(C)c5ccc(Cl)cc5)cn34)cc2)o1 [Compound 483, N-(4-chlorophenyl)-N-methyl-3-{4-[5-(methylamino)-1,3,4-oxadiazol-2-yl]phenyl}imidazo[1,2-a]pyrazine-6-carboxamide]
< 50 nM	CNc1nnc(-c2ccc(-c3cnc4cnc(C(=O)N(C)c5ccc(F)cc5)cn34)cc2)o1 [Compound 478, N-(4-fluorophenyl)-N-methyl-3-{4-[5-(methylamino)-1,3,4-oxadiazol-2-yl]phenyl}imidazo[1,2-a]pyrazine-6-carboxamide]
